According to US20170306040A1, “COMBINATION THERAPY OF AN AFUCOSYLATED CD20 ANTIBODY WITH A CD22 ANTIBODY-DRUG CONJUGATE” (Hoffmann-La Roche Inc., priority 2013, published 2017):

Test system: WSU-DLCL2 lymphoma cells
Method: The tumor cell line was routinely cultured in DMEM containing 10% FCS (Gibco) at 37° C. in a water-saturated atmosphere at 5% CO2. Passage 15 was used for transplantation in human CD16 transgenic Scid mice. […] Expression of CD20 and CD22 was confirmed on WSU-DLCL2 lymphoma cells by FACS. […] Mean fluorescence was measured using the plate protocol in the FACS CantoII (Software FACS Diva).
60 SCID FcgR3 transgenic female mice (SCID CD16 tg mice), age 7-8 weeks at start of experiment (purchased from Charles River), were maintained under specific-pathogen-free condition with daily cycles of 12 h light/12 h darkness according to committed guidelines (GV-Solas; Felasa; TierschG). […] After arrival animals were maintained for one week to get accustomed to new environment and for observation. Continuous health monitoring was carried out on regular basis.
Animals were randomized for CD16 Expression on murine NK cells with an average of 70%. Treatment started 12 days after cell transplantation. […] The CD22-ADC was given once on study day 12 at the dose of 4 mg/kg. The antibody dilutions were prepared freshly from stock before use. The study was terminated on day 273.
Animals were controlled daily for clinical symptoms and detection of adverse effects. Termination criteria for animals were visible sickness: scruffy fur, arched back, heavy breathing, impaired locomotion, HLP (hind leg paralysis). Mice were sacrificed according to the termination criteria.
Survival data were statistically analyzed by pairwise Wilcoxon and pairwise log-rank test.
The diffuse large B-cell lymphoma cell line WSU-DLCL2 was intravenously inoculated (5×10^6 cells) into the tail vein of the human CD16 transgenic Scid mice. Mice were randomized for equal CD16 expression of NK cells and treatment started at day 12 after cell transplantation. […] Animals in the control group received PBS. All animals were controlled daily for clinical symptoms and detection of adverse effects and sacrificed according to the set termination criteria. Study termination was on study day 273. Survival data were represented with the survival curve (FIG. 1) and were statistically analyzed by Pairwise Wilcoxon and Pairwise Log-Rank test (FIG. 2).

Substance: GA101: afucosylated glycoengineered humanized B-Ly1 type II anti-CD20 IgG1 antibody
- Survival difference between GA101 and rituximab single agents (Pairwise Wilcoxon test): no significant difference
- Survival difference from the vehicle group (Pairwise Wilcoxon test): significantly different from the vehicle group except of GA101
- Median Survival (WSU-DLCL2 i.v. in SCID CD16 tg mice, GA101/rituximab 30 mg/kg i.v. days 12, 19, 26, CD22-ADC 4 mg/kg i.v. once day 12, study end day 273): 86.5 days
- Animals tumor free at the end of the study (day 273, 10 animals per group): 1 animals
- Overall Survival at end of experiment (day 273) (surviving animals/10 per group, same dosing as the median survival study): 1/10
